Source: patent publication US3945993A, “Derivatives of polyene macrolide antibiotics” (Rutgers Research and Educational Foundation, priority 1971, dated 1976)
≈ marks a conversion by molar mass, not a printed value. Structures can show the parent of a compound that is named as a salt. Where two headings read alike, the source gives them in different places.

How the values were obtained:
[1] = True water solubility of base polyene antibiotics by DMSO dilution and ultra-violet spectrum; type: physicochemical; details: for solubility: water
[2] = system: Saccharomyces cerevisiae; experiment: Minimum inhibitory concentration, in vitro antifungal potency (Saccharomyces cerevisiae); type: cell-based; details: for MIC: read-out: Min. Inhibitory Conc.
From the text: (§1) As indicated, numerous tests have shown that the antimicrobial activity of the present derivatives, both in the immediate ester form of esterification and in the final water-soluble salt form, is substantially the same as that of the base antibiotics. […] In the table the numerical values represent minimum inhibitory concentration and thus the lower the value, the greater the activity in inhibiting growth of the organism.

[3] = Water solubility of acid salts of the esters by the dry weight method; type: physicochemical; details: acid addition salts (hydrochlorides); for solubility: water
[4] = system: Candida albicans; experiment: Minimum inhibitory concentration (Candida albicans); type: cell-based
From the text: as §1
(§2) In the case of amphotericin B this set of tests was extended to other microorganisms: the minimum inhibitory concentrations in micrograms per ml. for amphotericin B and its methyl ester hydrochloride respectively were 0.5 and 0.5 against Candida albicans, 0.5 and 0.5 against Mucor rouxii, and 0.20 and 0.25 against Aspergillus niger.

[5] = system: Mucor rouxii; experiment: Minimum inhibitory concentration (Mucor rouxii); type: cell-based; details: Amylomyces rouxii
From the text: as §1, §2

[6] = system: Aspergillus niger; experiment: Minimum inhibitory concentration (Aspergillus niger); type: cell-based
From the text: as §1, §2

[7] = True solution in water judged by ultra-violet spectrum (FIG. 5); type: physicochemical; details: 7 micrograms per ml. in water
From the text: The true solubility of the present derivatives is further illustrated by FIG. 5, where curve A is the ultraviolet spectrum for amphotericin B methyl ester hydrochloride in water, 7 micrograms per ml., and curve B is a like spectrum for the same concentration of the base amphotericin B in water.

[8] = system: Saccharomyces cerevisiae, Candida albicans and Aspergillus niger; experiment: Standard in vitro tests of antimicrobial activity of derivative and base against representative organisms; type: cell-based; details: result in words
From the text: as §1

[9] = Qualitative solubility of esters and salts in water and organic solvents; type: physicochemical
[10] = base antibiotics, calculated from UV after ten fold dilution of saturated water solution with dimethyl sulfoxide

## Trichomycin [reference compound]
[1]; [10]
  Solubility in water: 0.046 mg/mL
[2]; in vitro
  Min. Inhibitory Conc.: 0.030 micrograms/ml.

## Nystatin methyl ester hydrochloride
[3]
  Solubility in water: > 80.0 mg/mL

## Candidin
[1]; [10]
  Solubility in water: 0.116 mg/mL

## Hamycin
[1]; [10]
  Solubility in water: 0.032 mg/mL

## COC(=O)[C@H]1[C@@H]2C[C@@H](O[C@@H]3O[C@H](C)[C@@H](O)[C@H](N)[C@@H]3O)/C=C/C=C/C=C/C=C/C=C/C=C/C=C/[C@H](C)[C@@H](O)[C@@H](C)[C@H](C)OC(=O)C[C@H](O)C[C@H](O)CC[C@@H](O)[C@H](O)C[C@H](O)C[C@](O)(C[C@@H]1O)O2 [amphotericin B methyl ester hydrochloride]
[3]; hydrochloride
  Solubility in water: > 75 mg/mL
[3]
  solubility: > 75 mg/mL
[4]
  MIC: 0.5 µg/mL
[5]
  MIC: 0.5 µg/mL
[2]
  MIC: 0.25 µg/mL
[6]
  MIC: 0.25 µg/mL
[7]
  state in water by ultraviolet spectrum: true solution in water
[8]
  antimicrobial activity compared with the base antibiotic: very substantial antimicrobial activity, essentially the same, i.e., quantitatively, as the base antibiotic

## CCOC(=O)[C@H]1[C@@H]2C[C@@H](O[C@@H]3O[C@H](C)[C@@H](O)[C@H](N)[C@@H]3O)/C=C/C=C/C=C/C=C/C=C/C=C/C=C/[C@H](C)[C@@H](O)[C@@H](C)[C@H](C)OC(=O)C[C@H](O)C[C@H](O)CC[C@@H](O)[C@H](O)C[C@H](O)C[C@](O)(C[C@@H]1O)O2 [Amphotericin B ethyl ester hydrochloride, amphotericin B ethyl ester hydrochloride]
[3]
  solubility: > 75 mg/mL

## mediocidin methyl ester hydrochloride
[3]
  Solubility in water: > 50.0 mg/mL

## COC(=O)C1C(O)CC2(O)CC(O)CC3OC3/C=C/C(=O)OC(C)C/C=C/C=C/C=C/C=C/C(OC3OC(C)C(O)C(N)C3O)CC1O2 (centres unmarked) [Pimaricin methyl ester]
[2]; in vitro
  MIC: 4 µg/mL (≈ 5.88 µM)

## Candimycin methyl ester
[2]; in vitro
  Min. Inhibitory Conc.: 0.025 micrograms/ml.

## Trichomycin methyl ester hydrochloride
[3]
  Solubility in water: > 20.0 mg/mL
[2]; in vitro
  Min. Inhibitory Conc.: 0.030 micrograms/ml.

## Nystatin methyl ester
[2]; in vitro
  Min. Inhibitory Conc.: 4.00 micrograms/ml.

## C[C@@H]1[C@H](O)[C@@H](C)/C=C/C=C/C=C/C=C/C=C/C=C/C=C/[C@H](O[C@@H]2O[C@H](C)[C@@H](O)[C@H](N)[C@@H]2O)C[C@@H]2O[C@](O)(C[C@@H](O)C[C@@H](O)[C@H](O)CC[C@@H](O)C[C@@H](O)CC(=O)O[C@H]1C)C[C@H](O)[C@H]2C(=O)O [Amphotericin B, amphotericin B, reference compound]
[1]; base antibiotics, calculated from UV after ten fold dilution of saturated water solution with dimethyl sulfoxide, read-out: Solubility in water
  solubility: 0.0017 mg/mL (≈ 1.84 µM)
[5]
  MIC: 0.5 µg/mL (≈ 0.541 µM)
[2]
  MIC: 0.25 µg/mL (≈ 0.271 µM)
[6]
  MIC: 0.2 µg/mL (≈ 0.216 µM)
[7]
  state in water by ultraviolet spectrum: did not dissolve and was therefore a mere dispersion

## Candidin methyl ester hydrochloride
[3]
  Solubility in water: > 50.0 mg/mL

## COC(=O)[C@H]1[C@@H]2C[C@@H](O[C@@H]3O[C@H](C)[C@@H](O)[C@H](N)[C@@H]3O)/C=C/C=C/C=C/C=C/C=C/C=C/C=C/[C@H](C)[C@@H](O)[C@@H](C)[C@H](C)OC(=O)C[C@H](O)C[C@H](O)CC[C@@H](O)[C@H](O)C[C@H](O)C[C@](O)(C[C@@H]1O)O2 [Amphotericin B methyl ester, amphotericin B methyl ester]
[9]; ethyl acetate
  solubility in ethyl acetate: slightly soluble
[9]; methyl alcohol, ethyl alcohol, tetrahydrofurane, dimethyl formamide and dimethyl sulfoxide
  solubility in organic solvents: soluble
[9]; petroleum ether and ethyl ether
  solubility in petroleum ether and ethyl ether: insoluble
[9]; water
  solubility in water (in words): slightly soluble

## Candicidin methyl ester hydrochloride
[3]
  Solubility in water: > 20.0 mg/mL
[2]; in vitro
  Min. Inhibitory Conc.: 0.025 micrograms/ml.

## C[C@@H]1[C@H](O)[C@@H](C)/C=C/C=C/CC/C=C/C=C/C=C/C=C/C(O[C@H]2O[C@H](C)[C@@H](O)[C@H](N)[C@@H]2O)CC2O[C@](O)(CC(O)C(O)CCC(O)CC(O)CC(O)CC(=O)O[C@H]1C)CC(O)C2C(=O)O (some centres unmarked) [Nystatin, reference compound]
[1]; [10]
  Solubility in water: 0.039 mg/mL (≈ 42.1 µM)
[2]; in vitro
  Min. Inhibitory Conc.: 3.00 micrograms/ml.

## Mediocidin methyl ester
[2]; in vitro
  Min. Inhibitory Conc.: 0.030 micrograms/ml.

## Candimycin [reference compound]
[2]; in vitro
  Min. Inhibitory Conc.: 0.025 micrograms/ml.

## C[C@@H]1C/C=C/C=C/C=C/C=C/[C@H](O[C@@H]2O[C@H](C)[C@@H](O)[C@H](N)[C@@H]2O)C[C@@H]2O[C@](O)(C[C@@H](O)C[C@H]3O[C@@H]3/C=C/C(=O)O1)C[C@H](O)[C@H]2C(=O)O [Pimaricin, reference compound]
[1]
  solubility: 0.052 mg/mL (≈ 78.1 µM)
[2]; in vitro
  MIC: 3.5 µg/mL (≈ 5.26 µM)

## Candicidin [reference compound]
[1]; [10]
  Solubility in water: 0.032 mg/mL
[2]; in vitro
  Min. Inhibitory Conc.: 0.020 micrograms/ml.

## COC(=O)C1C(O)CC2(O)CC(O)CC3OC3/C=C/C(=O)OC(C)C/C=C/C=C/C=C/C=C/C(OC3OC(C)C(O)C(N)C3O)CC1O2 (centres unmarked) [Pimaricin methyl ester hydrochloride]
[3]
  solubility: > 80 mg/mL

## Mediocidin [reference compound]
[1]; [10]
  Solubility in water: 0.072 mg/mL
[2]; in vitro
  Min. Inhibitory Conc.: 0.035 micrograms/ml.

## Hamycin methyl ester hydrochloride
[3]
  Solubility in water: > 20.0 mg/mL
